This experiment relates to C. glabrata. Nature of the experiment: Fungicidal spot assay on compound-free YPD plates. Type of experiment: cell-based. Here is the method:
Fig 4 4456dh inhibits the growth of Candida and Cryptococcus species. […] 4456dh was administered at the concentrations indicated. Cultures were grown in YPD at the listed temperatures for 48 hours for Candida species and 72 hours for Cryptococcus species. Experimental temperatures reflect the temperatures at which the fungi experience heat stress. Left: relative growth of treated samples was calculated by averaging technical triplicates and normalizing the OD600 of each treated well to the average OD600 of the untreated WT controls, after the absorbance due to the compound was subtracted. The MIC80 values, calculated based on the OD600 values, are indicated in the white text on each heat map. […]
124 technical replicates. Growth, as determined by a reading of absorbance at 600 nm, was
125 normalized to untreated controls and was corrected for the absorbance of 4456dh in the YPD […]
129 overnight cultures was quantified by measuring the OD600 and corrected for the background
130 absorbance of the medium. Antifungal potency for 4456dh was assessed by minimum inhibitory […]
137 replicates. Growth, as determined by a reading of absorbance at 600 nm, was normalized to
138 untreated controls and was corrected for the absorbance of 4456dh in the YPD medium. […]
139 minimum inhibitory concentration causing 80% growth reduction, or MIC80, was determined based […]

As to `Cn1cc(-c2csc(NC(=O)Cc3ccccn3)n2)cn1` [Compound 4456dh], the fungicidal activity entry (30°C exposure) is given as “no MIC or fungicidal activity was detected”. The “concentration from which fungicidal activity starts” value (42°C exposure) is on record as “approximately 7.8 µM”.

The values are drawn from PMC12505902, “Inhibitors of trehalose-6-phosphate synthase activity in fungal pathogens compromise thermal tolerance pathways” (mBio, 2025).
